Test results taken from paper PMC11513842, “Development of an orally bioavailable CDK12/13 degrader and induction of synthetic lethality with AKT pathway inhibition” (Cell Reports Medicine, 2024).
pIC50: −log10 of the molar value. Like-named read-outs stand apart in the source and are kept apart here.

Tests used:
[1] = Pharmacokinetic profile in CD-1 mice; assay type: in vivo; conditions: plasma, CD-1 mouse; for AUC: read-out: AUC(0-⊠)
[2] = test system: castrated VCaP xenograft (VCaP-CRPC); experiment: VCaP castration-resistant prostate cancer xenograft efficacy; assay type: in vivo, mouse; conditions: i.v. 30 mg/kg 3x/week, 18 days
Procedure: (§1) Six-week-old male CB17SCID mice obtained from Charles River (Stock # 236), were used to establish subcutaneous tumors on both dorsal flanks. Tumor dimensions were measured biweekly using digital calipers, applying the formula (π/6) (L × W^2), where L and W represent tumor length and width, respectively. At the study conclusion, mice were euthanized, and tumors were excised and weighed. The University of Michigan Institutional Animal Care and Use Committee (IACUC) approved all in vivo studies.
For the VCaP castration-resistant tumor model, 3×10^6 VCaP cells were subcutaneously injected into both dorsal flanks of mice using a serum-free medium mixed with 50% Matrigel (BD Biosciences). Upon tumors reaching palpable size (∼200 mm^3), animals underwent castration. When tumors regrew to their pre-castration size, mice were randomized for treatment with 30 mg/kg YJ9069 or vehicle via intravenous injection or 100 mg/kg YJ1206 or vehicle, […]

CDK12 and CDK13 = conditions: VCaP cells
Procedure: After treatment of varying conditions, cell lysates were prepared using RIPA buffer (ThermoFisher Scientific) supplemented with cOmplete protease inhibitor cocktail tablets (Sigma-Aldrich). The Pierce BCA Protein Assay Kit ([…]) was used to determine the protein concentrations. Proteins with an equal amount from each sample were loaded on NuPAGE 3–8% Tris-Acetate or 4–12% Bis-Tris protein gels (ThermoFisher Scientific) and subsequently transferred to membranes, which were blocked using 5% nonfat milk. Following blocking at room temperature for 1 h, the membrane was further incubated with varying primary antibodies at 4°C overnight. HRP-conjugated secondary antibodies were used for detection, and membrane imaging was conducted using an Odyssey Fc Imager (LI-COR Biosciences).

PC310 PDX = experiment: PC310 patient-derived xenograft efficacy; assay type: in vivo, mouse; conditions: i.v. 30 mg/kg 3x/week
Procedure: as §1
(§2) WA74 PDX model was developed at the University of Michigan during collection of a rapid autopsy case as part of the Michigan Legacy Tissue Program (MLTP). PC310 PDX model was obtained from Erasmus Medical Center, Rotterdam, the Netherlands. Both PDX lines were propagated in male CB17SCID mice by surgically implanting 2 mm^3 tumor fragments, coated with 100% Matrigel, into both flanks of mice. When tumors reached approximately 200 mm^3, mice were randomized into treatment groups. These groups received either 30 mg/kg YJ9069 via intravenous injection or 100 mg/kg YJ1206 by oral gavage, both administered three times per week, with or without 15 mg/kg uprosertib by oral gavage five days per week for 3–4 weeks. In accordance with IACUC guidelines, the maximum tumor size was limited to 2.0 cm in any dimension, and mice were euthanized if xenografts reached this endpoint.

[3] = test system: benign immortalized cell lines (PrEC, WPMY-1, BPH-1, RWPE1, PNT2, MCF10A, MCF12A); experiment: Cell viability, benign immortalized cell lines; assay type: cell-based; conditions: Homo sapiens, 120 h; most benign immortalized cell lines, 5 days; read-out: half-maximal inhibitory concentration [IC50]
Procedure: (§3) Cells were seeded in 96-well plates and incubated at 37°C with 5% CO2 overnight. A series of compound dilutions were added into the cells. After 5 days incubation, cell proliferation was tested using the CellTiter-Glo assay (Promega) according to the manufacturer’s protocol. Luminescence was measured using the Infinite M1000 Pro plate reader (Tecan). Data analysis was conducted using GraphPad Prism software.

WA74 PDX = experiment: WA74 patient-derived xenograft efficacy; assay type: in vivo, mouse
Procedure: as §1, §2

CWR22RV1 = experiment: Cell viability assay (CellTiter-Glo, 5 days); assay type: cell-based; conditions: Homo sapiens, 120 h; CWR22RV1, 5 days of treatment, Figure 1F
Procedure: as §3

PC3 = experiment: Cell viability assay (CellTiter-Glo, 5 days); assay type: cell-based; conditions: Homo sapiens, PC-3, 120 h; PC3, 5 days of treatment, Figure 1F
Procedure: as §3

SK-BR-3 = experiment: Cell viability assay (CellTiter-Glo, 5 days); assay type: cell-based; conditions: Homo sapiens, 120 h; SK-BR-3, 5 days of treatment, Figure 1F
Procedure: as §3

LAPC4 = experiment: Cell viability assay (CellTiter-Glo, 5 days); assay type: cell-based; conditions: Homo sapiens
Procedure: as §3

DU145 = experiment: Cell viability assay (CellTiter-Glo, 5 days); assay type: cell-based; conditions: Homo sapiens, DU-145, 120 h; DU145, 5 days of treatment, Figure 1F
Procedure: as §3

MCF10A = experiment: Cell viability assay (CellTiter-Glo, 5 days); assay type: cell-based; conditions: Homo sapiens, MCF-10A, 120 h, 5 days of treatment, Figure 1F
Procedure: as §3

MCF12A = experiment: Cell viability assay (CellTiter-Glo, 5 days); assay type: cell-based; conditions: Homo sapiens, MCF-12A, 120 h, 5 days of treatment, Figure 1F
Procedure: as §3

WPMY-1 = experiment: Cell viability assay (CellTiter-Glo, 5 days); assay type: cell-based; conditions: Homo sapiens, 120 h; WPMY-1, 5 days of treatment, Figure 1F
Procedure: as §3

MFM223 = experiment: Cell viability assay (CellTiter-Glo, 5 days); assay type: cell-based; conditions: Homo sapiens, MFM-223, 120 h; MFM223, 5 days of treatment, Figure 1F
Procedure: as §3

22RV1 = experiment: Cell viability assay (CellTiter-Glo, 5 days); assay type: cell-based; conditions: Homo sapiens
Procedure: as §3

MDA-MB-468 = experiment: Cell viability assay (CellTiter-Glo, 5 days); assay type: cell-based; conditions: Homo sapiens, 120 h; MDA-MB-468, 5 days of treatment, Figure 1F
Procedure: as §3

RWPE1 = experiment: Cell viability assay (CellTiter-Glo, 5 days); assay type: cell-based; conditions: Homo sapiens, RWPE-1; RWPE, dose-response curve, Figure 3A
Procedure: as §3

MCF7 = experiment: Cell viability assay (CellTiter-Glo, 5 days); assay type: cell-based; conditions: Homo sapiens, 120 h; MCF7, 5 days of treatment, Figure 1F
Procedure: as §3

For O=C1CCC(N2C(=O)c3cccc(OCC(=O)N4CCN(c5ccc(N(C(=O)NCc6ccccc6)C6CCC(Nc7ncc8ccccc8n7)CC6)cc5)CC4)c3C2=O)C(=O)N1 (centres unmarked) [YJ9069], the AUC(0-t) ([1]; iv, i.v. 2.5 mg/kg) was 3150 ng·h/mL, the Cmax ([1]; iv, i.v. 2.5 mg/kg) was 3650 ng/mL and the Tmax ([1]; iv, i.v. 2.5 mg/kg) was 4.8 min. For the same compound, the clearance ([1]; iv, i.v. 2.5 mg/kg) was 13.1 mL/min/kg, the half-life ([1]; iv, i.v. 2.5 mg/kg) was 314 min and the AUC ([1]; iv, i.v. 2.5 mg/kg) was 3220 ng·h/mL. The bioavailability ([1]; oral, p.o. 10 mg/kg vs i.v. 2.5 mg/kg, read-out: F% (oral bioavailability)) was 1.02%, the AUC(0-t) ([1]; po, p.o. 10 mg/kg) was 128 ng·h/mL and the Cmax ([1]; po, p.o. 10 mg/kg) was 55 ng/mL. The Tmax ([1]; po, p.o. 10 mg/kg) was 15 min, the half-life ([1]; po, p.o. 10 mg/kg) was 146 min and the AUC ([1]; po, p.o. 10 mg/kg) was 145 ng·h/mL. For the same compound, the “treated animals with tumor regression exceeding 50%” value ([2]; VCaP-CRPC) was 73%, the “partial response (PR), waterfall plot (RECIST)” value (shortened to “partial response (PR)”) ([2]; castrated VCaP) was 82% and the “stable disease (SD), waterfall plot (RECIST)” value (“stable disease (SD)” for short) ([2]; castrated VCaP) was 18%. The “CDK12/13 degradation (immunoblot)” value (CDK12 and CDK13) was “enhanced degradation of both CDK12 and CDK13 proteins compared to 7f”, the “progressive disease (PD), waterfall plot (RECIST)” value (PC310 PDX) was 63% and the “stable disease (SD)” value (PC310 PDX) was 31%. For the same compound, the pIC50 [3] was < 5.00, the “anti-tumor effect (regression)” value (WA74 PDX; 30 mg/kg, 3 times/week, 21 days) was “regression in all animals” and the “partial response (PR)” value (WA74 PDX; i.v. 30 mg/kg 2x/week) was 43%. For the same compound, the “stable disease (SD)” value (WA74 PDX; i.v. 30 mg/kg 2x/week) was 43%, the “partial response (PR)” value (WA74 PDX; i.v. 30 mg/kg 3x/week) was 100% and the pIC50 (CWR22RV1) was 6.37. For the same compound, the pIC50 (PC3) was 5.62, the pIC50 (SK-BR-3) was 5.89 and the pIC50 (LAPC4; 120 h, LAPC4, 5 days of treatment, Figure 1F) was 6.82. For the same compound, the pIC50 (LAPC4; LAPC4, dose-response curve, Figure 3A) was 6.96, the pIC50 (DU145) was < 5.00 and the pIC50 (MCF10A) was < 5.00. For the same compound, the pIC50 (MCF12A) was < 5.00, the pIC50 (WPMY-1) was < 5.00 and the pIC50 (MFM223) was 7.35. For the same compound, the pIC50 (22RV1; 120 h, 22RV1, 5 days of treatment, Figure 1F) was 7.04, the pIC50 (22RV1; 22RV1, dose-response curve, Figure 3A) was 6.84 and the pIC50 (MDA-MB-468) was 6.17. For the same compound, the pIC50 (RWPE1) was < 5.00 and the pIC50 (MCF7) was 5.76.
